Earlier results on two compounds are cited in patent US20060287318A1, “Method for treating glaucoma III B” (priority 2000, published 2006).

For series [1] the following is noted: literature description of a compound series.
The test system of the next series is Aged Rhesus monkeys. The note with it: drug treated vs. control eye; baseline and pilocarpine-stimulated conditions; reported in the concurrently filed application "Methods for Treating Glaucoma I".
The next series has as its system Rhesus monkeys. The note with it: accommodative responses to i.m. pilocarpine; reported in the concurrently filed application "Methods for Treating Glaucoma I".

Take `Cc1ccc(C(=O)C[n+]2ccccc2)cc1.[Cl-]` [1-[2-(4-methylphenyl)-2-oxoethyl]-pyridinium chloride]: in series [1], the glucose lowering effect result was “inactive”.

`Cc1sc[n+](CC(=O)c2ccccc2)c1C.[Cl-]` [4,5-dimethyl-3-(2-oxoethyl-phenethyl)thiazolium chloride]: the “improvement in ophthalmologic function (fluid outflow facility)” value in the series on Aged Rhesus monkeys is given as “improvement has been illustrated”. In addition, the improvement in accommodation result in the series with Rhesus monkeys was “Improvement in accommodation has been illustrated”.
